From US5217882A, “Microbial transformation process for producing antihypertensive N2 -glucuronide products” (Merck & Co., Inc., priority 1992, dated 1993)

Target: T1, Angiotensin II (A II) receptor (Oryctolagus cuniculus, UniProt P34976)
T1 construct: tissue Pel-Freeze Biologicals; host or cells: rabbit aorta, membrane preparation
T1 sequence (P34976 1-359): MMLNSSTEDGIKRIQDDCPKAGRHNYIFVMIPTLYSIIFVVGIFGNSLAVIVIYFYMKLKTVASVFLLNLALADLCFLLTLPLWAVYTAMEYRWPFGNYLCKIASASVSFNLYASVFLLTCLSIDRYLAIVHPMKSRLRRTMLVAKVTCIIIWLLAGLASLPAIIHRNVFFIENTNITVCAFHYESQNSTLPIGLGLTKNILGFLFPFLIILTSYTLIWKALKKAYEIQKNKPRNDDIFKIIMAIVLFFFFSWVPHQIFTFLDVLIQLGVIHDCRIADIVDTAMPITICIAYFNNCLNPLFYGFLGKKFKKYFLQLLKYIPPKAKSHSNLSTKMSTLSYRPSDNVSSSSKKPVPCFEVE
Assay: Receptor binding assay using rabbit aortae membrane preparation ("IC50" assay; displacement of 125I-Sar1 Ile8-angiotensin II)
Conditions: 37° C. for 90 minutes, read-out: inhibitory concentration (IC50) giving 50% displacement of total specifically bound 125I-Sar1 Ile8-angiotensin II
Protocol: This assay is also referred to herein as the "IC50 " assay.
Receptor binding assay using rabbit aortae membrane preparation
Three frozen rabbit aortae (obtained from Pel-Freeze Biologicals) were suspended in 5 mM Tris-0.25M Sucrose, pH 7.4 buffer (50 ml) homogenized, and then centrifuged. The mixture was filtered through a cheesecloth and the supernatant was centrifuged for 30 minutes at 20,000 rpm at 4° C. The pellet thus obtained was resuspended in 30 ml of 50 mM Tris-5 mM MgCl2 buffer containing 0.2% Bovine Serum Albumin and 0.2 mg/ml Bacitration and the suspension was used for 100 assay tubes. Samples tested for screening were done in duplicate. To the membrane preparation (0.25 ml) there was added ^125 I-Sar^1 -Ile^8 -angiotensin II [obtained from New England Nuclear] (10 ul; 20,000 cpm) with or without the test sample and the mixture was incubated at 37° C. for 90 minutes. The mixture was then diluted with ice-cold 50 mM Tris-0.9% NaCl, pH 7.4 (4 ml) and filtered through a glass fiber filter (GF/B Whatman 2.4" diameter). The filter was soaked in scintillation cocktail (10 ml) and counted for radioactivity using Packard 2660 Tricarb liquid scintillation counter. […]

- IC50: < 50 µM
Compound: CCCCc1nc(Cl)c(CO)n1Cc1ccc(-c2ccccc2-c2nnn(C3OC(C(=O)O)C(O)C(O)C3O)n2)cc1 (stereo not shown) [compound (I)]
